Patent US10023708B2, “Method of producing a delivery device” (PTT HOLDING APS, priority 2011, dated 2018)
One block for each molecule: values may come before it.

Tests used:
[1] = Loading of Ceragenin CSA-13 into IPN discs and its release; details: IPN discs about 20% PHEMA loaded in EtOH + CO2
Description: 6 IPN discs (010 mm, thickness 1-2 mm) obtained from Example 1 and with about 20% PHEMA (total mass about 1.3266 g) was loaded with about 500 mg Ceragenin CSA-13. The loading solvent was 2.00 ml 99.8% EtOH supplied by Merck (Germany) and N48 CO2 (supplied by Air Liquid Denmark A/S (Denmark)). The Ceragenin CSA-13 was initially dissolved in the 2.00 ml 99.8% EtOH and injected into a reactor of 16 ml comprising the discs. The pressure was raised to about 300 bars by injecting CO2 and the temperature was raised to about 75° C. The discs were treated at this pressure and temperature under stirring (1100 rpm) for 21 hours and 50 minutes, where after the pressure was reduced, the discs were withdrawn and allowed to cool down.

[2] = Release of miconazole nitrate from loaded IPN discs versus PDMS discs; type: physicochemical; details: 75° C., 2 hours
Description: a) 10 PDMS (Polydimethylsiloxane) (silpuran 6000/40 supplied by Wacker) discs within the same mass range were used per high pressure vessel for loading drug into PDMS. […] The reactors were then coupled to a scCO2 system. scCO2 was applied at 350 bars until the pressure inside the reactors also reached 350 bars. The pressure remained at 350 bars throughout the procedure. The reaction was left for equilibration for 2 hours. d) The pressure was released, and the discs loaded with miconazole nitrate were gently cleaned with ethanol, and stored protected from light. a) 10 PDMS (Polydimethylsiloxane) discs within the same mass range were used per high pressure vessel for loading drug into PDMS. […] The reactors were then coupled to a scCO2 system. scCO2 was applied at 350 bars until the pressure inside the reactors also reached 350 bars. This pressure was maintained throughout the procedure. The reaction was left for equilibration for 2 hours. d) The pressure was released, and the discs loaded with miconazole nitrate were gently cleaned with ethanol, and stored protected from light.

[3] = Determination of work of adhesion Wsc between chemical compound and first polymer; type: physicochemical
From the text: (§1) The “work of adhesion” between two dissimilar materials is a measure of the energy required to separate the two dissimilar materials from each other. The work of adhesion is indicated with Wxy, wherein x and y respectively are the two dissimilar materials in question. Wxy is herein determined in joule per square meter of contact area of the x and y material to be separated (J/m^2). The contact area of the second polymer and the chemical component is proportional to the amount of a given chemical component and accordingly the Whc value could also be determined as J/mol chemical component. Work of adhesion (Whc) between the second polymer (h) and the chemical component (c) is determined according to the formula: Whc=γhn+γcn−γch, wherein γhn is the interfacial tension between h and n, γcn is the interfacial tension between c and n, and γch is the interfacial tension between c and h, where h=second polymer, n=normal saline and c=chemical component. The respective values of interfacial tension can be determined by any well known method or they can be calculated. Interfacial tensions can be determined from surface tensions of the individual compound, which can be measured or estimated from e.g. HSP which can be measured or estimated from group contribution calculations based on the chemical structure of the individual compound in question. […] At 1 bar and 25° C. the respective work of adhesion between sulfamethizole and the two polymers PDMS and PHEMA of the IPN of Example 1 was determined with respectively EtOH and water as loading solvents. Work of adhesion between sulfamethizole and the two polymers PDMS and PHEMA of the IPN of Example 1 was determined with varying volume fractions of EtOH in a loading solvent of EtOH and scCO2. The determination was determined at 300 bars and 75° C.

[4] = Determination of work of adhesion Whc between chemical compound and second polymer; type: physicochemical
From the text: as §1

[5] = Release of sulfamethizole from loaded IPN discs soaked in phosphate buffer; type: physicochemical; details: soaked in phosphate buffer solution at pH 4.5 over a period of about 14 days
Description: 2.5 g sulfamethizole (Unikem) was mixed with 60 ml sodium thiosulfate solution (12 ml 0.1 M was diluted to 60 ml using deionized water).
Drug loading was performed by placing 10 discs obtained from Example 1 in a 16 ml reactor. 2.00 ml of the above sulfamethizole mixture and 2.00 ml 99.8% EtOH supplied by Merck (Germany) was fed to the reactor. The discs were kept under stirring during the treatment time. The pressure in the reactor was initially raised to about 100 bars and with a temperature of about 44° C. Thereafter the temperature was raised to 75° C. and the pressure increased to 300 bars with CO2 (N48 CO2 supplied by Air Liquid Denmark A/S).

[6] = 1 bar, 25° C., loading solvent EtOH
[7] = 1 bar, 25° C., loading solvent Water
[8] = 300 bars, 75° C., volume fractions EtOH 0.0000 / scCO2 1.0000
[9] = 300 bars, 75° C., volume fractions EtOH 0.0625 / scCO2 0.9375
[10] = 300 bars, 75° C., volume fractions EtOH 0.1250 / scCO2 0.8750
[11] = 300 bars, 75° C., volume fractions EtOH 0.1875 / scCO2 0.8125
[12] = 300 bars, 75° C., volume fractions EtOH 0.2500 / scCO2 0.7500
[13] = 300 bars, 75° C., volume fractions EtOH 0.3125 / scCO2 0.6875
[14] = 300 bars, 75° C., volume fractions EtOH 0.3750 / scCO2 0.6250
[15] = 300 bars, 75° C., volume fractions EtOH 0.4375 / scCO2 0.5625
[16] = 300 bars, 75° C., volume fractions EtOH 0.5000 / scCO2 0.5000
[17] = 300 bars, 75° C., volume fractions EtOH 0.5625 / scCO2 0.4375
[18] = 300 bars, 75° C., volume fractions EtOH 0.6250 / scCO2 0.3750
[19] = 300 bars, 75° C., volume fractions EtOH 0.6875 / scCO2 0.3125
[20] = 300 bars, 75° C., volume fractions EtOH 0.7500 / scCO2 0.2500
[21] = 300 bars, 75° C., volume fractions EtOH 0.8125 / scCO2 0.1875
[22] = 300 bars, 75° C., volume fractions EtOH 0.8750 / scCO2 0.1250
[23] = 300 bars, 75° C., volume fractions EtOH 0.9375 / scCO2 0.0625
[24] = 300 bars, 75° C., volume fractions EtOH 1.0000 / scCO2 0.0000

Structure (SMILES): CCCCCCCCNCCC[C@@H](C)[C@H]1CC[C@H]2[C@@H]3[C@H](OCCCN)C[C@@H]4C[C@H](OCCCN)CC[C@]4(C)[C@H]3C[C@H](OCCCN)[C@]12C [Ceragenin CSA-13]
release from the delivery device, microbiological effect [1]: can be released in sufficient amounts to provide a significant microbiological effect

amount releasable from the IPN discs compared with the PDMS discs ([2]; Test 1: loaded using scCO2, 350 bars): much higher
amount releasable from the IPN discs compared with the PDMS discs ([2]; Test 2: loaded using scCO2 and methanol, 350 bars): much higher
Structure (SMILES): Clc1ccc(COC(Cn2ccnc2)c2ccc(Cl)cc2Cl)c(Cl)c1 (stereo not drawn) [miconazole nitrate]

Work of adhesion Wsc s = PDMS c = sulfamethizole [3, 6]: 6.3434 J/m^2
Work of adhesion Wsc s = PDMS c = sulfamethizole [3, 7]: 57.7309 J/m^2
Work of adhesion Wsc s = PDMS c = sulfamethizole [3, 8]: 14.1969 J/m^2
Work of adhesion Wsc s = PDMS c = sulfamethizole [3, 9]: 11.2585 J/m^2
Work of adhesion Wsc s = PDMS c = sulfamethizole [3, 10]: 8.714 J/m^2
Work of adhesion Wsc s = PDMS c = sulfamethizole [3, 11]: 6.5641 J/m^2
Work of adhesion Wsc s = PDMS c = sulfamethizole [3, 12]: 4.8092 J/m^2
Work of adhesion Wsc s = PDMS c = sulfamethizole [3, 13]: 3.4498 J/m^2
Work of adhesion Wsc s = PDMS c = sulfamethizole [3, 14]: 2.4864 J/m^2
Work of adhesion Wsc s = PDMS c = sulfamethizole [3, 15]: 1.9195 J/m^2
Work of adhesion Wsc s = PDMS c = sulfamethizole [3, 16]: 1.7497 J/m^2
Work of adhesion Wsc s = PDMS c = sulfamethizole [3, 17]: 1.9773 J/m^2
Work of adhesion Wsc s = PDMS c = sulfamethizole [3, 18]: 2.6029 J/m^2
Work of adhesion Wsc s = PDMS c = sulfamethizole [3, 19]: 3.6271 J/m^2
Work of adhesion Wsc s = PDMS c = sulfamethizole [3, 20]: 5.0502 J/m^2
Work of adhesion Wsc s = PDMS c = sulfamethizole [3, 21]: 6.8727 J/m^2
Work of adhesion Wsc s = PDMS c = sulfamethizole [3, 22]: 9.0953 J/m^2
Work of adhesion Wsc s = PDMS c = sulfamethizole [3, 23]: 11.7183 J/m^2
Work of adhesion Wsc s = PDMS c = sulfamethizole [3, 24]: 14.7422 J/m^2
Work of adhesion Whc h = PHEMA c = sulfamethizole [4, 6]: 3.8908 J/m^2
Work of adhesion Whc h = PHEMA c = sulfamethizole [4, 7]: 38.3326 J/m^2
Work of adhesion Whc h = PHEMA c = sulfamethizole [4, 8]: 29.8588 J/m^2
Work of adhesion Whc h = PHEMA c = sulfamethizole [4, 9]: 25.3418 J/m^2
Work of adhesion Whc h = PHEMA c = sulfamethizole [4, 10]: 21.2182 J/m^2
Work of adhesion Whc h = PHEMA c = sulfamethizole [4, 11]: 17.4885 J/m^2
Work of adhesion Whc h = PHEMA c = sulfamethizole [4, 12]: 14.1531 J/m^2
Work of adhesion Whc h = PHEMA c = sulfamethizole [4, 13]: 11.2126 J/m^2
Work of adhesion Whc h = PHEMA c = sulfamethizole [4, 14]: 8.6675 J/m^2
Work of adhesion Whc h = PHEMA c = sulfamethizole [4, 15]: 6.5181 J/m^2
Work of adhesion Whc h = PHEMA c = sulfamethizole [4, 16]: 4.7652 J/m^2
Work of adhesion Whc h = PHEMA c = sulfamethizole [4, 17]: 3.4091 J/m^2
Work of adhesion Whc h = PHEMA c = sulfamethizole [4, 18]: 2.4503 J/m^2
Work of adhesion Whc h = PHEMA c = sulfamethizole [4, 19]: 1.8894 J/m^2
Work of adhesion Whc h = PHEMA c = sulfamethizole [4, 20]: 1.7267 J/m^2
Work of adhesion Whc h = PHEMA c = sulfamethizole [4, 21]: 1.9629 J/m^2
Work of adhesion Whc h = PHEMA c = sulfamethizole [4, 22]: 2.5985 J/m^2
Work of adhesion Whc h = PHEMA c = sulfamethizole [4, 23]: 3.6338 J/m^2
Work of adhesion Whc h = PHEMA c = sulfamethizole [4, 24]: 5.0694 J/m^2
amount of loaded compound released from the discs [5]: the major amount
Structure (SMILES): Cc1nnc(NS(=O)(=O)c2ccc(N)cc2)s1 [sulfamethizole]
